From patent publication US20070293443A1, “Composition for Accelerating Calcium Absorption” (Good Shusei Co. Ltd, priority 2004, published 2007)

Key:
[1] = system: dietary calcium absorption; assay: Dietary calcium absorption accelerating effect, blood calcium level after oral calcium carbonate with test substance (Example 1); type: in vivo; settings: male ICR mice, oral 5 mmol/kg calcium carbonate alone or with test substance (1.25-10.0 mmol/kg), up to 4 hours after administration
Source text: For the experiment, 11-weeks old male ICR mice were used after overnight fasting. During the test period, the mice were given deionized water only. […] The doses of L-arabonic acid administered in combination were 1.25 mmol/kg (Group II), 2.5 mmol/kg (Group III), 5.0 mmol/kg (Group IV), and 10.0 mmol/kg (Group V), and the doses of D-gluconic acid were 2.5 mmol/kg (Group VI), 5.0 mmol/kg (Group VII), and 10.0 mmol/kg (Group VIII). […] The blood calcium level was quantified by a chelate colorimetric method (ortho-cresolphthalein complexone (OCPC) method). The obtained data were analyzed by a paired t-test, and a risk ratio of 5% or less was considered as significant difference.

[2] = Neutralization curve on dropwise addition of 0.05 N sodium hydroxide, buffering capacity (Example 9); type: physicochemical; settings: 50 mL of 0.4% aqueous solution, 0.05 N sodium hydroxide added
Procedure: A sodium hydroxide solution at a concentration of 0.05 N was added to 50 mL of a 0.4% aqueous solution of the preparation of Example 9, and the changes in pH were obtained as shown in FIG. 3. […] In addition, 0.2% aqueous solutions of the preparation of Example 9, Comparative Example 1 and Comparative Example 2 were tasted. The 0.2% aqueous solution of the preparation of […] (pH 4.95), having the lowest pH among three, had the closest taste to water, no flavor, and thus it was indistinguishable from water. The preparations of Comparative Example 1 (pH 5.60) and Comparative Example 2 (pH 5.02) had clearly bitter tastes, even in small amount.
In addition, a sodium hydroxide solution at a concentration of 0.05 N was added to 50 mL of a 0.4% aqueous solution of L-arabono-γ-lactone and 50 mL of a 0.4% aqueous solution of D-glucono-δ-lactone, respectively, and the changes in pH were obtained as shown in FIG. 2.

[3] = Kinetics of calcium L-arabonate in the digestive tract of rat (Example 6); type: in vivo
Procedure: For the experiment, 9 to 12-weeks old male Wistar rats were used after overnight fasting. After orally administering 2.5 mmol/kg of calcium L-arabonate, the animals were entered into a metabolic cage, and were sacrificed after 2 hours, after 6 hours, and after 24 hours, to remove the digestive tracts. The contents in each site of the digestive tract were recovered, respectively, and the amount of unaltered L-arabonic acid was quantified by the HPLC method. During the test period, the animals were given deionized water only.

[4] = system: experimental osteoporosis induced by combination of ovary excision and calcium-deficient diet; assay: Experimental osteoporosis due to combination of ovary excision and calcium-deficient diet (Example 8); type: in vivo, mice; settings: for absorption rate of calcium in the digestive tract, fourth week / absorption rate of calcium in the digestive tract, second week: ovary-excised mice on calcium-deficient diet; for Femur Ash content / Femur Ca content / Femur P content / Femur Weight / Tibia Ash content / Tibia Ca content / Tibia P content / Tibia Weight: 4 weeks
Procedure: (§1) Six-week old female ICR mice were divided into five groups (Groups I to V, 10 animals in each group), and fed calcium-deficient feed (calcium carbonate-free AIN 93M, Oriental Yeast Co., Ltd.) for 4 weeks to induce osteoporosis condition. Calcium L-arabonate was dissolved in water and orally administered daily in a dose of 1.25 mmol/kg (Group II) or 2.5 mmol/kg (Group III). The control group for pathological condition (Group I) was administered with water in the same manner. As a comparative group, a group administered with calcium D-gluconate (dose 2.5 mmol/kg (Group IV)) was provided. A normal control group (Group V) was separately provided and was given the normal feed (AIN 93M, Oriental Yeast Co., Ltd.). After administering the test substance on the second week and fourth week of initiation of the test, the animals were transferred to a metabolic cage, and feces were collected for 24 hours. The amount of calcium and phosphorus excreted in the feces were measured, and the absorption rates of ingested calcium and phosphorous in the digestive tract were determined. After completion of the test period, the animals of the respective groups were sacrificed to remove both femurs and tibiae. The femurs and tibiae were removed muscles etc., then immersed in 70% ethanol overnight, and dried at 60° C. for 24 hours to be used as samples for analysis. The measurement items were dry weight, ash content, calcium content, and phosphorus content. The ash content was measured by an ashing method at 550° C. for 18 hours, the calcium content was measured by an OCPC method (Calcium C-Test Wako, Wako Pure Chemical Industries, Ltd.), and the phosphorus content was measured by a p-methylaminophenol reduction method (Phospho C-Test Wako, Wako Pure Chemical Industries, Ltd.). The obtained data were analyzed by ANOVA and the Dunnett's method, and a risk ratio of 5% or less was considered as significant difference.
Six-weeks old female ICR mice excised their ovaries were divided into 5 groups (Groups I to V, 10 animals in each group), and fed calcium-deficient feed (calcium carbonate-free AIN 93M, Oriental Yeast Co., Ltd.) for 4 weeks to induce osteoporosis condition. Calcium L-arabonate was dissolved in water, and orally administered daily in a dose of 1.25 mmol/kg (Group II) or 2.5 mmol/kg (Group III). The control group for pathological condition (Group I) was administered with water in the same manner. As a comparative group, a group administered with calcium D-gluconate (dose 2.5 mmol/kg (Group IV)) was provided. Also, a group excised ovaries but given with normal feed (AIN 93M, Oriental Yeast Co., Ltd.) (Group V) was separately provided. The measurement of the absorption rate of calcium in the digestive tract, and the analysis of femur and tibia were performed in the same manner as in Example 7.

[5] = system: experimental osteoporosis induced by calcium-deficient diet; assay: Experimental osteoporosis induced by calcium-deficient diet (Example 7); type: in vivo, mice; settings: for absorption rate of calcium in the digestive tract, fourth week / absorption rate of calcium in the digestive tract, second week: calcium-deficient diet mice; for Femur Ash content / Femur Ca content / Femur P content / Femur Weight / Tibia Ash content / Tibia Ca content / Tibia P content / Tibia Weight: 4 weeks
Procedure: as §1

mice = assay: Single oral administration safety test, LD50; type: in vivo
Source text: As a result of a single oral test using mice, it was confirmed that the LD50 value of L-arabonic acid was about 10 g/kg, and thus L-arabonic acid was a material having high safety.
While it was discovered in Example 5 that the calcium moiety of calcium L-arabonate used in the invention was extremely readily-absorbable, it was shown in Example 6 that the L-arabonic acid moiety was extremely poorly absorbed in the digestive tract.

[6] = Blood calcium level after administration of calcium L-arabonate (Example 5); type: in vivo; settings: male ICR mice, oral calcium L-arabonate 1.25, 2.5, 5.0 mmol/kg or calcium carbonate 5 mmol/kg, up to 4 hours
Procedure: For the experiment, 11-weeks old male ICR mice were used after overnight fasting. During the test period, the mice were given deionized water only. The mice were divided into four groups (Groups I to IV, 5 animals in each group), and the test substance was orally administered as a solution in deionized water. […] The blood calcium level was quantified by a chelating calorimetric method (ortho-cresolphthalein complexone (OCPC) method). The obtained data were analyzed by a paired t-test, and a risk ratio of 5% or less was considered as significant difference.

[7] = 1.25 and 2.5 mmol/kg, versus pathological control and calcium D-gluconate group

## O=C1O[C@@H](CO)[C@H](O)[C@H]1O [L-arabono-γ-lactone]
[1]
  change in blood calcium level: same effects as those of L-arabonic acid
[2]
  buffering capacity: milder than that of D-glucono-δ-lactone

## O=C([O-])[C@@H](O)[C@H](O)[C@H](O)CO.O=C([O-])[C@@H](O)[C@H](O)[C@H](O)CO.[Ca+2] [calcium L-arabonate]
[3]; after 24 hours, oral 2.5 mmol/kg calcium L-arabonate
  share of the total amount of administration remained in the cecum and the colon: About 23%
[3]; after oral administration of the calcium salt
  absorption of the arabonic acid moiety in the small intestine: hardly absorbed in the small intestine
[3]; oral 2.5 mmol/kg calcium L-arabonate, cecum, 2 hrs
  Residual ratio of L-arabonic acid after administration, Cecum, After 2 hrs: 34.4 ± 5.81%
[3]; oral 2.5 mmol/kg calcium L-arabonate, cecum, 6 hrs
  Residual ratio of L-arabonic acid after administration, Cecum, After 6 hrs: 57.8 ± 2.27%
[3]; oral 2.5 mmol/kg calcium L-arabonate, cecum, 24 hrs
  Residual ratio of L-arabonic acid after administration, Cecum, After 24 hrs: 19.0 ± 15.67%
[3]; oral 2.5 mmol/kg calcium L-arabonate, colon, 2 hrs
  Residual ratio of L-arabonic acid after administration, Colon, After 2 hrs: 1.9 ± 0.76%
[3]; oral 2.5 mmol/kg calcium L-arabonate, colon, 6 hrs
  Residual ratio of L-arabonic acid after administration, Colon, After 6 hrs: 3.9 ± 1.30%
[3]; oral 2.5 mmol/kg calcium L-arabonate, colon, 24 hrs
  Residual ratio of L-arabonic acid after administration, Colon, After 24 hrs: 2.5 ± 0.95%
[3]; oral 2.5 mmol/kg calcium L-arabonate, small intestine, 2 hrs
  Residual ratio of L-arabonic acid after administration, Small intestine, After 2 hrs: 22.6 ± 4.85%
[3]; oral 2.5 mmol/kg calcium L-arabonate, small intestine, 6 hrs
  Residual ratio of L-arabonic acid after administration, Small intestine, After 6 hrs: 2.2 ± 1.08%
[3]; oral 2.5 mmol/kg calcium L-arabonate, small intestine, 24 hrs
  Residual ratio of L-arabonic acid after administration, Small intestine, After 24 hrs: 0.2 ± 0.08%
[3]; oral 2.5 mmol/kg calcium L-arabonate, stomach, 2 hrs
  Residual ratio of L-arabonic acid after administration, Stomach, After 2 hrs: 3.30 ± 1.34%
[3]; oral 2.5 mmol/kg calcium L-arabonate, stomach, 6 hrs
  Residual ratio of L-arabonic acid after administration, Stomach, After 6 hrs: 0.1 ± 0.06%
[3]; oral 2.5 mmol/kg calcium L-arabonate, stomach, 24 hrs
  Residual ratio of L-arabonic acid after administration, Stomach, After 24 hrs: 0%
[4]; [7]
  amelioration of weight, ash, calcium and phosphorus content of femur and tibia: ameliorated in all of the indices in dose-dependent manner
[4]; dose 1.25 mmol/kg oral daily
  absorption rate of calcium in the digestive tract, fourth week: 81.8%
  absorption rate of calcium in the digestive tract, second week: 85.7%
  Femur Ash content: 25 ± 0.4 mg
  Femur Ca content: 8.8 ± 0.18 mg
  Femur P content: 4.7 ± 0.07 mg
  Femur Weight: 45 ± 0.9 mg
  Tibia Ash content: 22 ± 0.3 mg
  Tibia Ca content: 8.2 ± 0.15 mg
  Tibia P content: 4.2 ± 0.05 mg
  Tibia Weight: 42 ± 0.8 mg
[4]; dose 2.5 mmol/kg oral daily
  absorption rate of calcium in the digestive tract, fourth week: 57.7%
  absorption rate of calcium in the digestive tract, second week: 74.4%
  Femur Ash content: 28 ± 0.8 mg
  Femur Ca content: 10.2 ± 0.24 mg
  Femur P content: 5.3 ± 0.11 mg
  Femur Weight: 50 ± 0.9 mg
  Tibia Ash content: 25 ± 0.5 mg
  Tibia Ca content: 9.3 ± 0.23 mg
  Tibia P content: 4.7 ± 0.11 mg
  Tibia Weight: 46 ± 1.0 mg
[5]; 1.25 and 2.5 mmol/kg, compared with calcium D-gluconate group
  absorption rates of phosphorus in the digestive tract: tendency for higher absorption rates of phosphorus compared with the comparative group
[5]; [7]
  amelioration of weight, ash, calcium and phosphorus content of femur and tibia: ameliorated in all of the above indices in dose-dependent manner
[5]; dose 1.25 mmol/kg oral daily
  absorption rate of calcium in the digestive tract, fourth week: 99.3%
  absorption rate of calcium in the digestive tract, second week: 93.1%
  Femur Ash content: 24 ± 0.7 mg
  Femur Ca content: 8.8 ± 0.22 mg
  Femur P content: 4.5 ± 0.09 mg
  Femur Weight: 44 ± 1.0 mg
  Tibia Ash content: 23 ± 0.8 mg
  Tibia Ca content: 8.1 ± 0.28 mg
  Tibia P content: 4.2 ± 0.14 mg
  Tibia Weight: 43 ± 1.6 mg
[5]; dose 2.5 mmol/kg oral daily
  absorption rate of calcium in the digestive tract, fourth week: 80.1%
  absorption rate of calcium in the digestive tract, second week: 87.9%
  Femur Ash content: 27 ± 0.5 mg
  Femur Ca content: 9.5 ± 0.13 mg
  Femur P content: 5.1 ± 0.05 mg
  Femur Weight: 49 ± 1.1 mg
  Tibia Ash content: 24 ± 0.5 mg
  Tibia Ca content: 9.1 ± 0.22 mg
  Tibia P content: 4.6 ± 0.05 mg
  Tibia Weight: 46 ± 1.2 mg
mice
  LD50: ≥ 7400 mg/kg
[6]
  change in blood calcium level: dose-dependent increases in the blood calcium level
